Measured values reported in patent publication US20220395497A1, “Cancer Treatment Using Camptothecin Derivatives” (priority 2019, published 2022).
“And” between values parts separate entries of the source, which are not always exact repeats. Equal entries are not always repeated.

System: adults with recurrence of glioblastoma multiforme (GBM)
Assay: Phase 2 open-label study of IV AR-67 (7.5 mg/m2 once daily for 5 days, 21-day cycle) in recurrent GBM: adverse events (Safety Population, NCI-CTCAE). Cohort 1 = not received or not recently failed (>90 days) bevacizumab; Cohort 2 = recently (<90 days) failed bevacizumab
Format: in vivo, human
Procedure: This solution was reconstituted in dextrose 5% in water to a final concentration between 0.06-0.6 mg/mL Drug (7.5 mg/m2) was to be given until the onset of toxicity requiring discontinuation or tumor progression. Tumor response was assessed=14d after every second cycle and before every third cycle using MRI.

[1] = All Patients, N = 45, possibly, probably, or definitely related

SMILES: CC[C@@]1(O)C(=O)OCc2c1cc1n(c2=O)Cc2c-1nc1ccc(O)cc1c2[Si](C)(C)C(C)(C)C [AR-67, (205)-7-tert-butyldimethysilyl-10-hydroxycamptothecin]
- TEAEs associated with laboratory abnormalities assessed as Grade 4 in toxicity, events (All Patients): Three
- headache as TEAE leading to discontinuation, patients (All Patients): 3
- patients with AR-67 permanently discontinued due to an SAE (All Patients): Three
- patients with AR-67 temporarily interrupted or stopped due to an SAE (All Patients): Six
- patients with dose modification due to an SAE (All Patients): 2
- thrombocytopenia, anaemia, neutropenia, and leukopenia, each occurring in % of all patients (All Patients): 11-18%
- Death, No of Events (All Patients, N = 45): 3
- Death, patients (%) (All Patients, N = 45): (6.7) %
- SAE, No of Events (All Patients, N = 45): 30
- TEAE Anaemia, patients (%) (All Patients, N = 45): 15.6%
- TEAE Confusional state, patients (%) (All Patients, N = 45): 11.1%
- TEAE Constipation, patients (%) (All Patients, N = 45): 20.0%
- TEAE Convulsion, patients (%) (All Patients, N = 45): 8.9%
- TEAE Definitely Related to AR-67, No of Events (All Patients, N = 45): 55
- TEAE Diarrhoea, patients (%) (All Patients, N = 45): 15.6%
- TEAE Dizziness, patients (%) (All Patients, N = 45): 11.1%
- TEAE Dyspepsia, patients (%) (All Patients, N = 45): 8.9%
- TEAE Eye Disorders, patients (%) (All Patients, N = 45): 8.9%
- TEAE Flushing, patients (%) (All Patients, N = 45): 11.1%
- TEAE Gastrointestinal Disorders, patients (%) (All Patients, N = 45): (51.1) %
- TEAE General Disorders and Administration Site Conditions, patients (%) (All Patients, N = 45): (37.8) %
- TEAE Headache, patients (%) (All Patients, N = 45): (22.2) %
- TEAE Hiccups, patients (%) (All Patients, N = 45): 11.1%
- TEAE Hyperglycaemia, patients (%) (All Patients, N = 45): 8.9%
- TEAE Hypopho sphataemia, patients (%) (All Patients, N = 45): 8.9%
- TEAE Intensity Life Threatening, No of Events (All Patients, N = 45): 4
- TEAE Intensity Life Threatening, patients (%) (All Patients, N = 45): (8.9) %
- TEAE Intensity Mild, No of Events (All Patients, N = 45): 212/428 and 212
- TEAE Intensity Mild, patients (%) (All Patients, N = 45): (68.9) %
- TEAE Intensity Moderate, No of Events (All Patients, N = 45): 128/428 and 128
- TEAE Intensity Moderate, patients (%) (All Patients, N = 45): (57.8) %
- TEAE Intensity Severe, No of Events (All Patients, N = 45): 75
- TEAE Intensity Severe, patients (%) (All Patients, N = 45): (62.2) %
- TEAE Leukopenia, patients (%) (All Patients, N = 45): 11.1%
- TEAE Lymphocyte count decreased, patients (%) (All Patients, N = 45): 11.1%
- TEAE Muscular weakness, patients (%) (All Patients, N = 45): 11.1%
- TEAE Musculoskeletal and Connective Tissue Disorders, patients (%) (All Patients, N = 45): (28.9) %
- TEAE Musculoskeletal pain, patients (%) (All Patients, N = 45): 6.7%
- TEAE NCI-CTCAE Grade 1, No of Events (All Patients, N = 45): 209
- TEAE NCI-CTCAE Grade 1, patients (%) (All Patients, N = 45): (66.7) %
- TEAE NCI-CTCAE Grade 2, No of Events (All Patients, N = 45): 119
- TEAE NCI-CTCAE Grade 2, patients (%) (All Patients, N = 45): (51.1) %
- TEAE NCI-CTCAE Grade 3, No of Events (All Patients, N = 45): 82
- TEAE NCI-CTCAE Grade 3, patients (%) (All Patients, N = 45): (66.7) %
- TEAE NCI-CTCAE Grade 4, No of Events (All Patients, N = 45): 9
- TEAE NCI-CTCAE Grade 4, patients (%) (All Patients, N = 45): (20.0) %
- TEAE Nausea, patients (%) (All Patients, N = 45): 20.0%
- TEAE Nervous System Disorders, patients (%) (All Patients, N = 45): (51.1) %
- TEAE Neutropenia, patients (%) (All Patients, N = 45): 13.3%
- TEAE Neutrophil count decreased, patients (%) (All Patients, N = 45): 13.3%
- TEAE Not Related to AR-67, No of Events (All Patients, N = 45): 117
- TEAE Platelet count decreased, patients (%) (All Patients, N = 45): 8.9%
- TEAE Possibly Related to AR-67, No of Events (All Patients, N = 45): 170
- TEAE Probably Related to AR-67, No of Events (All Patients, N = 45): 79
- TEAE Psychiatric Disorders, patients (%) (All Patients, N = 45): (28.9) %
- TEAE Respiratory, Thoracic, and Mediastinal Disorders, patients (%) (All Patients, N = 45): (24.4) %
- TEAE Thrombocytopenia, patients (%) (All Patients, N = 45): 17.8%
- TEAE Vascular Disorders, patients (%) (All Patients, N = 45): 17.8%
- TEAE Vision blurred, patients (%) (All Patients, N = 45): 8.9%
- TEAE Vomiting, patients (%) (All Patients, N = 45): 8.9%
- TEAE White blood cell count decreased, patients (%) (All Patients, N = 45): 11.1%
- TEAE leading to death, No of Events (All Patients, N = 45): 17
- TEAE leading to early discontinuation, No of Events (All Patients, N = 45): 10
- TEAE, No of Events (All Patients, N = 45): 428
- ≥1 TEAE leading to death, patients (%) (All Patients, N = 45): (4.4) %
- 1 related SAE, patients (%) [1]: (24.4) %
- related SAE, No of Events [1]: 19/29 and 19/30 and 11/30 and 19
- related TEAE, No of Events [1]: 304
- SAE headache, patients (Cohort 1): 1
- SAE infections and infestations, events (Cohort 1): 4
- SAE infections and infestations, patients (Cohort 1): 3
- SAE nervous system disorders, events (Cohort 1): 3
- SAE nervous system disorders, patients (Cohort 1): 3
- SAE respiratory, thoracic and mediastinal disorders, events (Cohort 1): 3
- SAE respiratory, thoracic and mediastinal disorders, patients (Cohort 1): 2
- Death, No of Events (Cohort 1, N = 30): 1
- Death, patients (%) (Cohort 1, N = 30): (3.3) %
- SAE, No of Events (Cohort 1, N = 30): 16
- TEAE Anaemia, patients (%) (Cohort 1, N = 30): 23.3% and 23%
- TEAE Blood and Lymphatic System Disorders, events (Cohort 1, N = 30): 41
- TEAE Confusional state, patients (%) (Cohort 1, N = 30): 10.0%
- TEAE Constipation, patients (%) (Cohort 1, N = 30): 23.3% and 23%
- TEAE Convulsion, patients (%) (Cohort 1, N = 30): 10.0%
- TEAE Definitely Related to AR-67, No of Events (Cohort 1, N = 30): 36
- TEAE Definitely Related to AR-67, patients (%) (Cohort 1, N = 30): (40.0) %
- TEAE Diarrhoea, patients (%) (Cohort 1, N = 30): 16.7%
- TEAE Dizziness, patients (%) (Cohort 1, N = 30): 16.7%
- TEAE Dyspepsia, patients (%) (Cohort 1, N = 30): 13.3%
- TEAE Eye Disorders, patients (%) (Cohort 1, N = 30): (10.0) %
- TEAE Flushing, patients (%) (Cohort 1, N = 30): (16.7) %
- TEAE Gastrointestinal Disorders, patients (%) (Cohort 1, N = 30): (50.0) %
- TEAE General Disorders and Administration Site Conditions, patients (%) (Cohort 1, N = 30): (36.7) %
- TEAE Headache, patients (%) (Cohort 1, N = 30): 23.3% and 23%
- TEAE Hiccups, patients (%) (Cohort 1, N = 30): (10.0) %
- TEAE Hyperglycaemia, patients (%) (Cohort 1, N = 30): (13.3) %
- TEAE Hypopho sphataemia, patients (%) (Cohort 1, N = 30): (13.3) %
- TEAE Intensity Life Threatening, No of Events (Cohort 1, N = 30): 3
- TEAE Intensity Life Threatening, patients (%) (Cohort 1, N = 30): (10.0) %
- TEAE Intensity Mild, No of Events (Cohort 1, N = 30): 177
- TEAE Intensity Mild, patients (%) (Cohort 1, N = 30): (73.3) %
- TEAE Intensity Moderate, No of Events (Cohort 1, N = 30): 100
- TEAE Intensity Moderate, patients (%) (Cohort 1, N = 30): (66.7) %
- TEAE Intensity Severe, No of Events (Cohort 1, N = 30): 59
- TEAE Intensity Severe, patients (%) (Cohort 1, N = 30): (60.0) %
- TEAE Investigations SOC, events (Cohort 1, N = 30): 101
- TEAE Leukopenia, patients (%) (Cohort 1, N = 30): 16.7%
- TEAE Lymphocyte count decreased, patients (%) (Cohort 1, N = 30): 16.7%
- TEAE Metabolism and Nutrition Disorders, patients (%) (Cohort 1, N = 30): (26.7) %
- TEAE Muscular weakness, patients (%) (Cohort 1, N = 30): 10.0%
- TEAE Musculoskeletal and Connective Tissue Disorders, patients (%) (Cohort 1, N = 30): (33.3) %
- TEAE Musculoskeletal pain, patients (%) (Cohort 1, N = 30): 10.0%
